Measurements from the supplement of paper PMC10307832.

Legend:
Assay in all cases: relative viability (nuclei count vs DMSO), 5 days (fraction); higher = more cells survive
HCC-15 = tested on: HCC-15
Summary of the method: (§1)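 For relative viability, nuclei counts in treated wells were divided by those in vehicle wells. Lung cancer cell lines had been pin-tool dosed in 1536-well plates the day after seeding and cultured for 5 days, then fixed and stained in one step (final 0.05% Triton X-100, 1% formaldehyde, 1 ug/ml Hoechst) and imaged at 4×. Doses were one drug alone or a fixed anchor-drug dose plus five library-drug doses (not always all listed) in √10 steps, and values are duplicate-plate medians.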

NCI-H1993 = tested on: NCI-H1993
Summary of the method: as §1

COR-L23 = tested on: COR-L23
Summary of the method: as §1

HARA = tested on: HARA
Summary of the method: as §1

ABC-1 = tested on: ABC-1
Summary of the method: as §1

NCI-H2228 = tested on: NCI-H2228
Summary of the method: as §1

HCC-78 = tested on: HCC-78
Summary of the method: as §1

NCI-H2405 = tested on: NCI-H2405
Summary of the method: as §1

SK-LU-1 = tested on: SK-LU-1
Summary of the method: as §1

NCI-H2126 = tested on: NCI-H2126
Summary of the method: as §1

LC-2-ad = tested on: LC-2-ad
Summary of the method: as §1

ChaGo-K-1 = tested on: ChaGo-K-1
Summary of the method: as §1

HCC-366 = tested on: HCC-366
Summary of the method: as §1

HOP-62 = tested on: HOP-62
Summary of the method: as §1

EMC-BAC-2 = tested on: EMC-BAC-2
Summary of the method: as §1

NCI-H23 = tested on: NCI-H23
Summary of the method: as §1

NCI-H838 = tested on: NCI-H838
Summary of the method: as §1

NCI-H2023 = tested on: NCI-H2023
Summary of the method: as §1

CC(=O)O[C@@]12CO[C@@H]1C[C@H](O)[C@@]1(C)C(=O)[C@H](O)C3=C(C)[C@@H](OC(=O)[C@H](O)[C@@H](NC(=O)OC(C)(C)C)c4ccccc4)C[C@@](O)([C@@H](OC(=O)c4ccccc4)[C@H]21)C3(C)C [Docetaxel] + CC(C)C[C@H](NC(=O)[C@H](Cc1ccccc1)NC(=O)c1cnccn1)B(O)O [Bortezomib] (partner 0.002 µM) was tested, and the relative viability (HCC-15; first compound 0.0002 µM) was 0.807, the relative viability (HCC-15; first compound 0.000632 µM) was 0.78 and the relative viability (HCC-15; first compound 0.002 µM) was 0.231. The relative viability (HCC-15; first compound 0.006325 µM) was 0.216, the relative viability (HCC-15; first compound 0.02 µM) was 0.157 and the relative viability (NCI-H1993; first compound 0.0002 µM) was 0.961. The relative viability (NCI-H1993; first compound 0.000632 µM) was 1.06, the relative viability (NCI-H1993; first compound 0.002 µM) was 0.798 and the relative viability (NCI-H1993; first compound 0.006325 µM) was 0.608. It also gave a relative viability (NCI-H1993; first compound 0.02 µM) of 0.399, a relative viability (COR-L23; first compound 0.0002 µM) of 0.885 and a relative viability (COR-L23; first compound 0.000632 µM) of 0.915. The relative viability (COR-L23; first compound 0.002 µM) was 0.844, the relative viability (COR-L23; first compound 0.02 µM) was 0.116 and the relative viability (HARA; first compound 0.0002 µM) was 1.04. It also gave a relative viability (HARA; first compound 0.000632 µM) of 0.372, a relative viability (HARA; first compound 0.002 µM) of 0.376 and a relative viability (HARA; first compound 0.006325 µM) of 0.118. For the same compound, the relative viability (HARA; first compound 0.02 µM) was 0.0895, the relative viability (ABC-1; first compound 0.0002 µM) was 0.298 and the relative viability (ABC-1; first compound 0.000632 µM) was 0.334. The relative viability (ABC-1; first compound 0.002 µM) was 0.306, the relative viability (ABC-1; first compound 0.006325 µM) was 0.247 and the relative viability (ABC-1; first compound 0.02 µM) was 0.278. For the same compound, the relative viability (NCI-H2228; first compound 0.0002 µM) was 0.617, the relative viability (NCI-H2228; first compound 0.000632 µM) was 0.212 and the relative viability (NCI-H2228; first compound 0.002 µM) was 0.149. It also gave a relative viability (NCI-H2228; first compound 0.006325 µM) of 0.243, a relative viability (NCI-H2228; first compound 0.02 µM) of 0.152 and a relative viability (HCC-78; first compound 0.0002 µM) of 0.581. For the same compound, the relative viability (HCC-78; first compound 0.000632 µM) was 0.524, the relative viability (HCC-78; first compound 0.002 µM) was 0.326 and the relative viability (HCC-78; first compound 0.006325 µM) was 0.487. For the same compound, the relative viability (HCC-78; first compound 0.02 µM) was 0.27, the relative viability (NCI-H2405; first compound 0.0002 µM) was 0.988 and the relative viability (NCI-H2405; first compound 0.000632 µM) was 0.956. For the same compound, the relative viability (NCI-H2405; first compound 0.002 µM) was 0.681, the relative viability (NCI-H2405; first compound 0.006325 µM) was 0.394 and the relative viability (NCI-H2405; first compound 0.02 µM) was 0.308. For the same compound, the relative viability (SK-LU-1; first compound 0.0002 µM) was 0.951, the relative viability (SK-LU-1; first compound 0.000632 µM) was 0.392 and the relative viability (SK-LU-1; first compound 0.002 µM) was 0.307. For the same compound, the relative viability (SK-LU-1; first compound 0.006325 µM) was 0.267, the relative viability (SK-LU-1; first compound 0.02 µM) was 0.208 and the relative viability (NCI-H2126; first compound 0.0002 µM) was 1.12. For the same compound, the relative viability (NCI-H2126; first compound 0.000632 µM) was 1.09, the relative viability (NCI-H2126; first compound 0.002 µM) was 1.04 and the relative viability (NCI-H2126; first compound 0.006325 µM) was 0.427. The relative viability (NCI-H2126; first compound 0.02 µM) was 0.288, the relative viability (LC-2-ad; first compound 0.0002 µM) was 0.702 and the relative viability (LC-2-ad; first compound 0.002 µM) was 0.125. It also gave a relative viability (LC-2-ad; first compound 0.006325 µM) of 0.116, a relative viability (LC-2-ad; first compound 0.02 µM) of 0.11 and a relative viability (ChaGo-K-1; first compound 0.0002 µM) of 1. For the same compound, the relative viability (ChaGo-K-1; first compound 0.000632 µM) was 0.542, the relative viability (ChaGo-K-1; first compound 0.002 µM) was 0.487 and the relative viability (ChaGo-K-1; first compound 0.006325 µM) was 0.419. It also gave a relative viability (ChaGo-K-1; first compound 0.02 µM) of 0.267, a relative viability (HCC-366; first compound 0.0002 µM) of 1.07 and a relative viability (HCC-366; first compound 0.000632 µM) of 0.267. It also gave a relative viability (HCC-366; first compound 0.002 µM) of 0.144, a relative viability (HCC-366; first compound 0.006325 µM) of 0.0171 and a relative viability (HOP-62; first compound 0.0002 µM) of 0.726. For the same compound, the relative viability (HOP-62; first compound 0.000632 µM) was 0.828, the relative viability (HOP-62; first compound 0.02 µM) was 0.128 and the relative viability (EMC-BAC-2; first compound 0.0002 µM) was 0.963. It also gave a relative viability (EMC-BAC-2; first compound 0.000632 µM) of 0.875, a relative viability (EMC-BAC-2; first compound 0.002 µM) of 0.573 and a relative viability (EMC-BAC-2; first compound 0.006325 µM) of 0.306. The relative viability (EMC-BAC-2; first compound 0.02 µM) was 0.206, the relative viability (NCI-H23; first compound 0.0002 µM) was 1.08 and the relative viability (NCI-H23; first compound 0.000632 µM) was 0.574. For the same compound, the relative viability (NCI-H23; first compound 0.002 µM) was 0.399, the relative viability (NCI-H23; first compound 0.006325 µM) was 0.169 and the relative viability (NCI-H23; first compound 0.02 µM) was 0.104. It also gave a relative viability (NCI-H838; first compound 0.0002 µM) of 0.795, a relative viability (NCI-H838; first compound 0.000632 µM) of 0.522 and a relative viability (NCI-H838; first compound 0.002 µM) of 0.247. For the same compound, the relative viability (NCI-H838; first compound 0.006325 µM) was 0.154, the relative viability (NCI-H838; first compound 0.02 µM) was 0.0975 and the relative viability (NCI-H2023; first compound 0.0002 µM) was 0.89. For the same compound, the relative viability (NCI-H2023; first compound 0.000632 µM) was 0.456, the relative viability (NCI-H2023; first compound 0.002 µM) was 0.134 and the relative viability (NCI-H2023; first compound 0.006325 µM) was 0.101. The relative viability (NCI-H2023; first compound 0.02 µM) was 0.0677.
